Where two headings read alike, the source gives them in different places.

12 compounds from paper PMC12670426 (Journal of Medicinal Chemistry, 2025) can be followed below.

In experiment [1] the target is T1, human galectin-1 (Gal-1, full length) (Homo sapiens, UniProt P09382).
T1 construct: Gal-1 is a prototype galectin consisting of a single CRD and was used in full length; 6xHis tag with TEV protease site (N, cleaved yes); made in house; host or cells: BL21 Escherichia coli (pET-15b)
The experiment in a line: Competitive fluorescence polarization assay, Gal-1. Type of experiment: binding. On the procedure:
(§1) Our investigation of the structure–activity relationship of N-aryl-N-lactosylamides started with an initial screening of substituted acetanilides (Table ). These compounds can be readily synthesized from a wide range of commercially available substituted anilines. Affinity was evaluated using a fluorescence polarization assay, which enables reliable determination of dissociation constants (K d) between small molecules and galectins. All inhibitors in this series were tested against the two most common human galectins: Gal-1 and Gal-3. Gal-1 is a prototype galectin consisting of a single CRD and was used in full length. In the case of Gal-3, which consists of the C-terminal CRD and N-terminal unfolded region, only the C-terminal domain was used (Gal-3C). Affinities were compared to methyl β-lactoside (β-LacOMe) as a baseline.
(§2) Fluorescence polarization experiments for determining inhibitor affinities were performed using the same instrumentation and settings as described for the direct binding experiments. […] The galectin–probe mixture was subsequently added using a Certus Flex liquid handler (Fritz Gyger AG, Switzerland) to reach a final volume of 5 μL. Anisotropy was measured after 30–60 min incubation at 25 °C. Inhibitor dissociation constants (K d) were calculated using Wang’s exact cubic model for competitive binding implemented in the BindCurve package. Protein and probe concentrations used in these competitive experiments are provided in the Supporting Information.
(§3) Competitive binding was modeled by Wang’s exact cubic model,3 which is written as […]
(§4) r = rmin + (rmax − rmin) 3 (6) […]
(§5) where r, rmin and rmax have the same meaning as in Equation 1. The coefficients a, b, and c are […]
(§6) a = Kd∗ + Kd + [L∗]T + [L]T − [R]T (7) b = Kd∗([L]T − [R]T) + Kd([L∗]T − [R]T) + Kd∗ Kd (8) […]
(§7) where Kd∗ is the dissociation constant of the probe, Kd is the dissociation constant of the […]
(§8) the unlabeled ligand, and [R]T is the total concentration of the receptor. The angle θ is defined […]
(§9) In the competitive binding experiments, the values of [L∗]T, [R]T and Kd∗ are known and [L]T is titrated. The values of minimal and maximal anisotropy rmin and rmax were fixed during fitting at the values of the minimal and maximal asymptotes obtained from the direct binding experiments. The value of Kd was calculated as the only unfixed parameter in the model.
(§10) Experimental constants used for the competitive fluorescence polarization experiments are […]
(§11) Table S2. Experimental constants used for competitive fluorescence polarization experiments. […]

Experiment [2] has as its target T2, human galectin-3C (Gal-3C, C-terminal CRD of galectin-3) (Homo sapiens, UniProt P17931).
T2 construct: only the C-terminal domain was used (Gal-3C); 6xHis tag with TEV protease site (N, cleaved yes); made in house; host or cells: BL21 Escherichia coli (pET-15b)
The experiment in a line: Competitive fluorescence polarization assay, Gal-3C. The experiment is classed as binding. On the procedure: as §1, §2, §3, §4, §5, §6, §7, §8, §9, §10, §11
In general terms: Polarisation of emitted light reports the rotation of a fluorescent probe.

Where [3] appears, read: CSV supplement, unrounded mean, read-out: Gal1_IC50_mean_uM.
[4] abbreviates: CSV supplement, unrounded mean, read-out: Gal1_Kd_mean_uM.
Where [5] appears, read: competitive fluorescence polarization, mean ± SD, read-out: Kd Gal-1.
Where [6] appears, read: four-parameter logistic model, mean ± SD, read-out: IC50 Gal-1.
[7] abbreviates: CSV supplement, unrounded mean, read-out: Gal3C_IC50_mean_uM.
Setting [8] is: CSV supplement, unrounded mean, read-out: Gal3C_Kd_mean_uM.
Where [9] appears, read: competitive fluorescence polarization, mean ± SD, read-out: Kd Gal-3C.
The mark [10] stands for this setting: four-parameter logistic model, mean ± SD, read-out: IC50 Gal-3C.

T2 sequence (P17931 118-248 limits assumed): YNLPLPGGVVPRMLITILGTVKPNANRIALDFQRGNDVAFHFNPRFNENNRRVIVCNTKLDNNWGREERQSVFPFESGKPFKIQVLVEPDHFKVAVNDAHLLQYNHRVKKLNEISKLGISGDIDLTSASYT
T1 sequence (P09382 2-135): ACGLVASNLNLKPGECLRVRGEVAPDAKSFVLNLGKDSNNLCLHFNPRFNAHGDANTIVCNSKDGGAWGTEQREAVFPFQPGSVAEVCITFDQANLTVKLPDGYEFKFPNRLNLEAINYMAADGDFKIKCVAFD

For the compound `CC(=O)N(c1cc(F)c(F)c(F)c1)[C@@H]1O[C@H](CO)[C@@H](O[C@@H]2O[C@H](CO)[C@H](O)[C@H](O)[C@H]2O)[C@H](O)[C@H]1O` [Compound 3i, N-[4-O-(β-D-Galactopyranosyl)-β-D-glucopyranosyl]-N-(3,4,5-trifluorophenyl)acetamide], the IC50 was determined as 565 µM in experiment [1] (setting [3]), 570 ± 10 µM in experiment [1] (setting [6]), 328 µM in experiment [2] (setting [7]) and 330 ± 5 µM in experiment [2] (setting [10]). In addition, the Kd amounted to 314 µM in experiment [1] (setting [4]), 310 ± 90 µM in experiment [1] (setting [5]), 111 µM in experiment [2] (setting [8]) and 110 ± 8 µM in experiment [2] (setting [9]).

Regarding `CC(=O)N(c1ccc(Cl)cc1)[C@@H]1O[C@H](CO)[C@@H](O[C@@H]2O[C@H](CO)[C@H](O)[C@H](O)[C@H]2O)[C@H](O)[C@H]1O` [Compound 3j, N-[4-O-(β-D-Galactopyranosyl)-β-D-glucopyranosyl]-N-(4-chlorophenyl)acetamide], the IC50 worked out at 654 µM in experiment [1] (setting [3]), 650 ± 30 µM in experiment [1] (setting [6]), 363 µM in experiment [2] (setting [7]) and 360 ± 10 µM in experiment [2] (setting [10]). In addition, the Kd in experiment [1] (setting [4]) turned out to be 363 µM; in experiment [1] (setting [5]), 360 ± 30 µM; in experiment [2] (setting [8]), 113 µM; in experiment [2] (setting [9]), 110 ± 10 µM.

`CC(=O)N(c1ccc(Cl)c(Cl)c1)[C@@H]1O[C@H](CO)[C@@H](O[C@@H]2O[C@H](CO)[C@H](O)[C@H](O)[C@H]2O)[C@H](O)[C@H]1O` [Compound 3k, N-[4-O-(β-D-Galactopyranosyl)-β-D-glucopyranosyl]-N-(3,4-dichlorophenyl)acetamide]: the IC50 in experiment [1] (setting [3]) came to 659 µM; in experiment [1] (setting [6]), 660 ± 8 µM; in experiment [2] (setting [7]) it was 346 µM; in experiment [2] (setting [10]), 350 ± 40 µM. For the same compound, the Kd amounted to 376 µM in experiment [1] (setting [4]), 380 ± 60 µM in experiment [1] (setting [5]), 112 µM in experiment [2] (setting [8]) and 110 ± 20 µM in experiment [2] (setting [9]).

For the compound `CC(=O)N(c1ccc(I)cc1)[C@@H]1O[C@H](CO)[C@@H](O[C@@H]2O[C@H](CO)[C@H](O)[C@H](O)[C@H]2O)[C@H](O)[C@H]1O` [Compound 3l, N-[4-O-(β-D-Galactopyranosyl)-β-D-glucopyranosyl]-N-(4-iodophenyl)acetamide], the IC50 in experiment [1] (setting [3]) was found to be 718 µM; in experiment [1] (setting [6]) it was 720 ± 40 µM; in experiment [2] (setting [7]) it was 355 µM; in experiment [2] (setting [10]), 360 ± 20 µM. For the same compound, the Kd is 396 µM in experiment [1] (setting [4]), 400 ± 20 µM in experiment [1] (setting [5]), 113 µM in experiment [2] (setting [8]) and 110 ± 20 µM in experiment [2] (setting [9]).

For the compound `COc1ccc(N(C(C)=O)[C@@H]2O[C@H](CO)[C@@H](O[C@@H]3O[C@H](CO)[C@H](O)[C@H](O)[C@H]3O)[C@H](O)[C@H]2O)cc1` [Compound 3m, N-[4-O-(β-D-Galactopyranosyl)-β-D-glucopyranosyl]-N-(4-methoxyphenyl)acetamide], the IC50 was 973 µM in experiment [1] (setting [3]), 970 ± 50 µM in experiment [1] (setting [6]), 346 µM in experiment [2] (setting [7]) and 350 ± 30 µM in experiment [2] (setting [10]). Further, the Kd in experiment [1] (setting [4]) turned out to be 661 µM; in experiment [1] (setting [5]), 660 ± 70 µM; in experiment [2] (setting [8]) it was 137 µM; in experiment [2] (setting [9]), 140 ± 50 µM.

For the compound `COc1ccc(N(C(C)=O)[C@@H]2O[C@H](CO)[C@@H](O[C@@H]3O[C@H](CO)[C@H](O)[C@H](O)[C@H]3O)[C@H](O)[C@H]2O)cc1OC` [Compound 3n, N-[4-O-(β-D-Galactopyranosyl)-β-D-glucopyranosyl]-N-(3,4-dimethoxyphenyl)acetamide], the IC50 in experiment [1] (setting [3]) came out at 678 µM; in experiment [1] (setting [6]), 680 ± 10 µM; in experiment [2] (setting [7]) it was 284 µM; in experiment [2] (setting [10]), 280 ± 10 µM. The Kd in experiment [1] (setting [4]) is 364 µM; in experiment [1] (setting [5]), 360 ± 40 µM; in experiment [2] (setting [8]), 88.9 µM; in experiment [2] (setting [9]), 89 ± 20 µM.

For the compound `COc1cc(N(C(C)=O)[C@@H]2O[C@H](CO)[C@@H](O[C@@H]3O[C@H](CO)[C@H](O)[C@H](O)[C@H]3O)[C@H](O)[C@H]2O)cc(OC)c1OC` [Compound 3o, N-[4-O-(β-D-Galactopyranosyl)-β-D-glucopyranosyl]-N-(3,4,5-trimethoxyphenyl)acetamide], the IC50 in experiment [1] (setting [3]) worked out at 461 µM; in experiment [1] (setting [6]) it was 460 ± 80 µM; in experiment [2] (setting [7]), 238 µM; in experiment [2] (setting [10]) it was 240 ± 40 µM. The Kd in experiment [1] (setting [4]) was determined as 243 µM; in experiment [1] (setting [5]), 240 ± 40 µM; in experiment [2] (setting [8]), 76.2 µM; in experiment [2] (setting [9]) it was 76 ± 20 µM. In addition, the “improvement in affinity toward Gal-1 compared to 3a” value in experiment [1] (compared to 3a) is on record as 2 fold.

On to `CC(=O)N(c1ccc2c(c1)OCO2)[C@@H]1O[C@H](CO)[C@@H](O[C@@H]2O[C@H](CO)[C@H](O)[C@H](O)[C@H]2O)[C@H](O)[C@H]1O` [Compound 3p, N-[4-O-(β-D-Galactopyranosyl)-β-D-glucopyranosyl]-N-(1,3-benzodioxol-5-yl)acetamide], for which the IC50 is 981 µM in experiment [1] (setting [3]), 980 ± 10 µM in experiment [1] (setting [6]), 346 µM in experiment [2] (setting [7]) and 350 ± 10 µM in experiment [2] (setting [10]). The Kd in experiment [1] (setting [4]) came out at 545 µM; in experiment [1] (setting [5]) it was 540 ± 30 µM; in experiment [2] (setting [8]), 115 µM; in experiment [2] (setting [9]), 110 ± 20 µM.

Regarding `CCOC(=O)c1ccccc1N(C(C)=O)[C@@H]1O[C@H](CO)[C@@H](O[C@@H]2O[C@H](CO)[C@H](O)[C@H](O)[C@H]2O)[C@H](O)[C@H]1O` [Compound 3q, N-[4-O-(β-D-Galactopyranosyl)-β-D-glucopyranosyl]-N-[2-(ethylcarboxy)phenyl]acetamide], the IC50 in experiment [1] (setting [3]) amounted to 773 µM; in experiment [1] (setting [6]), 770 ± 70 µM; in experiment [2] (setting [7]), 242 µM; in experiment [2] (setting [10]) it was 240 ± 5 µM. The Kd in experiment [1] (setting [4]) is 411 µM; in experiment [1] (setting [5]) it was 410 ± 20 µM; in experiment [2] (setting [8]), 80.2 µM; in experiment [2] (setting [9]) it was 80 ± 9 µM.

For the compound `CC(=O)N(c1cccc(C(=O)O)c1)[C@@H]1O[C@H](CO)[C@@H](O[C@@H]2O[C@H](CO)[C@H](O)[C@H](O)[C@H]2O)[C@H](O)[C@H]1O` [Compound 3r, N-[4-O-(β-D-Galactopyranosyl)-β-D-glucopyranosyl]-N-(3-carboxyphenyl)acetamide], the IC50 in experiment [1] (setting [3]) came to 1400 µM; in experiment [1] (setting [6]), 1400 ± 100 µM; in experiment [2] (setting [7]), 127 µM; in experiment [2] (setting [10]), 130 ± 20 µM. For the same compound, the Kd in experiment [1] (setting [4]) was 858 µM; in experiment [1] (setting [5]), 860 ± 30 µM; in experiment [2] (setting [8]), 40.9 µM; in experiment [2] (setting [9]), 41 ± 10 µM. Moreover, the “improvement in affinity toward Gal-3C compared to 3a” value in experiment [2] (compared to unsubstituted phenyl derivative 3a) worked out at 2 fold. In experiment [2] (ratio Kd (Gal-1)/Kd (Gal-3C)), the “selectivity for Gal-3C over Gal-1” value is recorded as 20 fold.

Take `CC(C)C(=O)N(c1cccc(C(=O)O)c1)[C@@H]1O[C@H](CO)[C@@H](O[C@@H]2O[C@H](CO)[C@H](O)[C@H](O)[C@H]2O)[C@H](O)[C@H]1O` [Compound 3s, N-[4-O-(β-D-Galactopyranosyl)-β-D-glucopyranosyl]-N-(3-carboxyphenyl)-2-methylpropanamide]: the IC50 in experiment [1] (setting [3]) is 1800 µM; in experiment [1] (setting [6]), 1800 ± 200 µM; in experiment [2] (setting [7]), 113 µM; in experiment [2] (setting [10]), 110 ± 0.2 µM. The Kd in experiment [1] (setting [4]) came to 1000 µM; in experiment [1] (setting [5]), 1000 ± 300 µM; in experiment [2] (setting [8]), 39.5 µM; in experiment [2] (setting [9]), 39 ± 4 µM.

Take `O=C(O)c1cccc(N(C(=O)c2ccccc2)[C@@H]2O[C@H](CO)[C@@H](O[C@@H]3O[C@H](CO)[C@H](O)[C@H](O)[C@H]3O)[C@H](O)[C@H]2O)c1` [Compound 3t, N-[4-O-(β-D-Galactopyranosyl)-β-D-glucopyranosyl]-N-(3-carboxyphenyl)benzamide]: the IC50 in experiment [1] (setting [3]) worked out at 1310 µM; in experiment [1] (setting [6]), 1300 ± 30 µM; in experiment [2] (setting [7]) it was 120 µM; in experiment [2] (setting [10]) it was 120 ± 9 µM. Besides, the Kd in experiment [1] (setting [4]) turned out to be 841 µM; in experiment [1] (setting [5]) it was 840 ± 80 µM; in experiment [2] (setting [8]), 51.3 µM; in experiment [2] (setting [9]), 51 ± 10 µM.
